Where a name gives a salt, the structure may show the parent alone.
SMILES	melting point [°C]
CNCCCCC(=O)OC[C@@H]1CC(c2ccc(-c3ccc(N4C[C@H](Cn5ccnn5)OC4=O)cc3F)cn2)=NO1 (as salt: hydrochloride) [Example 37, [(5S)-3-(5-{2-fluoro-4-[(5R)-2-oxo-5-(1H-1,2,3-triazol-1-ylmethyl)-1,3-oxazolidin-3-yl]phenyl}pyridin-2-yl)-4,5-dihydroisoxazol-5-yl]methyl 5-(methylamino)pentanoate]	184
CN(C)CC(=O)N(C)CCCCC(=O)OC[C@@H]1CC(c2ccc(-c3ccc(N4C[C@H](Cn5ccnn5)OC4=O)cc3F)cn2)=NO1 (as salt: hydrochloride) [Example 38, [(5S)-3-(5-{2-fluoro-4-[(5R)-2-oxo-5-(1H-1,2,3-triazol-1-ylmethyl)-1,3-oxazolidin-3-yl]phenyl}pyridin-2-yl)-4,5-dihydroisoxazol-5-yl]methyl 5-[(N,N-dimethylglycyl)(methyl)amino]pentanoate]	133
CCOC(=O)CCCCC(=O)OC[C@@H]1CC(c2ccc(-c3ccc(N4C[C@H](Cn5ccnn5)OC4=O)cc3F)cn2)=NO1 [Example 6, Ethyl [(5S)-3-(5-{2-fluoro-4-[(5R)-2-oxo-5-(1H-1,2,3-triazol-1-ylmethyl)-1,3oxazolidin-3-yl]phenyl}pyridin-2-yl)-4,5-dihydroisoxazol-5-yl]methyl hexanedioate]	88
CN(C)CCCC(=O)OC[C@@H]1CC(c2ccc(-c3ccc(N4C[C@H](Cn5ccnn5)OC4=O)cc3F)cn2)=NO1 [Example 9, [(5S)-3-(5-{2-Fluoro-4-[(5R)-2-oxo-5-(1H-1,2,3-triazol-1-ylmethyl)-1,3-oxazolidin-3-yl]phenyl}pyridin-2-yl)-4,5-dihydroisoxazol-5-yl]methyl 4-(dimethylamino)butanoate]	148
COC(=O)NCCCCC(=O)OC[C@@H]1CC(c2ccc(-c3ccc(N4C[C@H](Cn5ccnn5)OC4=O)cc3F)cn2)=NO1 [Example 10, [(5S)-3-(5-{2-Fluoro-4-[(5R)-2-oxo-5-(1H-1,2,3-triazol-1-ylmethyl)-1,3-oxazolidin-3-yl]phenyl}pyridin-2-yl)-4,5-dihydroisoxazol-5-yl]methyl 5-[(methoxycarbonyl)amino]pentanoate]	90
CCN(CC)CCC(=O)OC[C@@H]1CC(c2ccc(-c3ccc(N4C[C@H](Cn5ccnn5)OC4=O)cc3F)cn2)=NO1 [Example 11, [(5S)-3-(5-{2-Fluoro-4-[(5R)-2-oxo-5-(1H-1,2,3-triazol-1-ylmethyl)-1,3-oxazolidin-3-yl]phenyl}pyridin-2-yl)-4,5-dihydroisoxazol-5-yl]methyl N,N-diethyl-β-alaninate]	167
O=C(OC[C@@H]1CC(c2ccc(-c3ccc(N4C[C@H](Cn5ccnn5)OC4=O)cc3F)cn2)=NO1)c1ccc[n+]([O-])c1 [Example 25, [(5S)-3-(5-{2-fluoro-4-[(5R)-2-oxo-5-(1H-1,2,3-triazol-1-ylmethyl)-1,3-oxazolidin-3-yl]phenyl}pyridin-2-yl)-4,5-dihydroisoxazol-5-yl]methyl nicotinate 1-oxide]	255
CCOC(=O)NCCCCC(=O)OCC1CC(c2ccc(-c3ccc(N4C[C@H](Cn5ccnn5)OC4=O)cc3F)cn2)=NO1 (stereo partly drawn) [Example 27, [(5S)-3-(5-{2-fluoro-4-[(5R)-2-oxo-5-(1H-1,23-triazol-1-ylmethyl)-1,3-oxazolidin-3-yl]phenyl}pyridin-2-yl)-4,5-dihydroisoxazol-5-yl]methyl 5-[(ethoxycarbonyl)amino]pentanoate]	183
O=C(OC[C@@H]1CC(c2ccc(-c3ccc(N4C[C@H](Cn5ccnn5)OC4=O)cc3F)cn2)=NO1)c1cnccn1 [Example 30, [(5S)-3-(5-{2-fluoro-4-[(5R)-2-oxo-5-(1H-1,2,3-triazol-1-ylmethyl)-1,3-oxazolidin-3-yl]phenyl}pyridin-2-yl)-4,5-dihydroisoxazol-5-yl]methylpyrazine-2-carboxylate]	205 to 226
O=C(OC[C@@H]1CC(c2ccc(-c3ccc(N4C[C@H](Cn5ccnn5)OC4=O)cc3F)cn2)=NO1)c1cncnc1 [Example 31]	253 to 264
COC(=O)N(C)CCCCC(=O)OC[C@@H]1CC(c2ccc(-c3ccc(N4C[C@H](Cn5ccnn5)OC4=O)cc3F)cn2)=NO1 [Example 33, [(5S)-3-(5-{2-fluoro-4-[(5R)-2-oxo-5-(1H-1,2,3-triazol-1-ylmethyl)-1,3-oxazolidin-3-yl]phenyl}pyridin-2-yl)-4,5-dihydroisoxazol-5-yl]methyl 5-[(methoxycarbonyl)(methyl)amino]pentanoate]	82
CN(CCCCC(=O)OC[C@@H]1CC(c2ccc(-c3ccc(N4C[C@H](Cn5ccnn5)OC4=O)cc3F)cn2)=NO1)C(=O)OC(C)(C)C [Example 34, [(5S)-3-(5-{2-fluoro-4-[(5R)-2-oxo-5-(1H-1,2,3-triazol-1-ylmethyl)-1,3-oxazolidin-3-yl]phenyl}pyridin-2-yl)-4,5-dihydroisoxazol-5-yl]methyl 5-[(tert-butoxycarbonyl)(methyl)amino]pentanoate]	121
COC(=O)N(C)CCCC(=O)OC[C@@H]1CC(c2ccc(-c3ccc(N4C[C@H](Cn5ccnn5)OC4=O)cc3F)cn2)=NO1 [Example 35, [(5S)-3-(5-{2-fluoro-4-[(5R)-2-oxo-5-(1H-1,2,3-triazol-1-ylmethyl)-1,3-oxazolidin-3-yl]phenyl}pyridin-2-yl)-4,5-dihydroisoxazol-5-yl]methyl 4-[(methoxycarbonyl)(methyl)amino]butanoate]	135
COC(=O)N(C)CCCCCC(=O)OC[C@@H]1CC(c2ccc(-c3ccc(N4C[C@H](Cn5ccnn5)OC4=O)cc3F)cn2)=NO1 [Example 36, [(5S)-3-(5-{2-fluoro-4-[(5R)-2-oxo-5-(1H-1,2,3-triazol-1-ylmethyl)-1,3-oxazolidin-3-yl]phenyl}pyridin-2-yl)-4,5-dihydroisoxazol-5-yl]methyl 6-[(methoxycarbonyl)(methyl)amino]hexanoate]	103

The next lines start with the values.

melting point [°C]	SMILES
180 to 190	C[N+](C)(C)CCOC(=O)OC[C@@H]1CC(c2ccc(-c3ccc(N4C[C@H](Cn5ccnn5)OC4=O)cc3F)cn2)=NO1 (as salt: chloride) [Example 32, 2-[({[(5S)-3-(5-{2-fluoro-4-[(5R)-2-oxo-5-(1H-1,2,3-triazol-1-ylmethyl)-1,3-oxazolidin-3-yl]phenyl}pyridin-2-yl)-4,5-dihydrolsoxazol-5-yl]methoxy}carbonyl)oxy]-N,N,N-trimethylethanaminium chloride]
68 to 75	NCCC(=O)OC[C@@H]1CC(c2ccc(-c3ccc(N4C[C@H](Cn5ccnn5)OC4=O)cc3F)cn2)=NO1 (as salt: hydrochloride) [Example 8, [(5S)-3-(5-{2-Fluoro-4-[(5R)-2-oxo-5-(1H-1,2,3-triazol-1-ylmethyl)-1,3-oxazolidin-3-yl]phenyl}pyridin-2-yl)-4,5-dihydroisoxazol-5-yl]methyl β-alaninate]
175 to 180	CN(C)CC(=O)OCC1CC(c2ccc(-c3ccc(N4C[C@H](Cn5ccnn5)OC4=O)cc3F)cn2)=NO1 (stereo partly drawn) (as salt: hydrochloride) [Example 26, [3-(5-{2-fluoro-4-[(5R)-2-oxo-5-(1H-1,2,3-triazol-1-ylmethyl)-1,3-oxazolidin-3-yl]phenyl}pyridin-2-yl)-4,5-dihydroisoxazol-5-yl]methyl N,N-dimethylglycinate]
170	COCC(=O)OC[C@@H]1CC(c2ccc(-c3ccc(N4C[C@H](Cn5ccnn5)OC4=O)cc3F)cn2)=NO1 [Example 12, [(5S)-3-(5-{2-Fluoro-4-[(5R)-2-oxo-5-(1H-1,2,3-triazol-1-ylmethyl)-1,3-oxazolidin-3-yl]phenyl}pyridin-2-yl)-4,5-dihydroisoxazol-5-yl]methyl methoxyacetate]
149	COCCC(=O)OC[C@@H]1CC(c2ccc(-c3ccc(N4C[C@H](Cn5ccnn5)OC4=O)cc3F)cn2)=NO1 [Example 13, [(5S)-3-(5-{2-Fluoro-4-[(5R)-2-oxo-5-(1H-1,2,3-triazol-1-ylmethyl)-1,3-oxazolidin-3-yl]phenyl}pyridin-2-yl)-4,5-dihydroisoxazol-5-yl]methyl 3-methoxypropanoate]
205	COC(=O)OC[C@@H]1CC(c2ccc(-c3ccc(N4C[C@H](Cn5ccnn5)OC4=O)cc3F)cn2)=NO1 [Example 14, [(5S)-3-(5-{2-Fluoro-4-[(5R)-2-oxo-5-(1H-1,2,3-triazol-1-ylmethyl)-1,3-oxazolidin-3-yl]phenyl}pyridin-2-yl)-4,5-dihydroisoxazol-5-yl]methyl methyl carbonate]
112	COCCOC(=O)OC[C@@H]1CC(c2ccc(-c3ccc(N4C[C@H](Cn5ccnn5)OC4=O)cc3F)cn2)=NO1 [Example 15, [(5S)-3-(5-{2-Fluoro-4-[(5R)-2-oxo-5-(1H-1,2,3-triazol-1-ylmethyl)-1,3-oxazolidin-3-yl]phenyl}pyridin-2-yl)-4,5-dihydroisoxazol-5-yl]methyl 2-methoxyethyl carbonate]
154	COCCCC(=O)OC[C@@H]1CC(c2ccc(-c3ccc(N4C[C@H](Cn5ccnn5)OC4=O)cc3F)cn2)=NO1 [Example 17, [(5S)-3-(5-{2-Fluoro-4-[(5R)-2-oxo-5-(1H-1,2,3-triazol-1-ylmethyl)-1,3-oxazolidin-3-yl]phenyl}pyridin-2-yl)-4,5-dihydroisoxazol-5-yl]methyl 4-methoxybutanoate]
142	COCCCOC(=O)OC[C@@H]1CC(c2ccc(-c3ccc(N4C[C@H](Cn5ccnn5)OC4=O)cc3F)cn2)=NO1 [Example 29, (5S)-3-(5-{2-fluoro-4-[(5R)-2-oxo-5-(1H-1,2,3-triazol-1-ylmethyl)-1,3-oxazolidin-3-yl]phenyl}pyridin-2-yl)-4,5-dihydroisoxazol-5-yl]methyl 3-methoxypropyl carbonate]

From US7192974B2, “Hydroxymethyl substituted dihydroisoxazole derivatives useful as antibiotic agents” (AstraZeneca AB, priority 2003, dated 2007)
